Assay results reported in US20250089715A1, “INSECTICIDAL MIXTURES” (ADAMA MAKHTESHIM LTD., priority 2021, published 2025).

Assays:
[1] = test system: Spodoptera littoralis larvae; experiment: Leaf-dip feeding bioassay on Spodoptera littoralis larvae (castor bean leaves); format: in vivo; settings: for Lethal concentrations for Spodoptera littoralis, LD50 / Lethal concentrations for Spodoptera littoralis, LD90: early 3rd-instar larvae, treated castor bean leaves, probit analysis
Method: (§1) The laboratory susceptible strain of S. littoralis is collected in 2000 from a cotton field in Bet She'an area ([…] part of Israel) and is reared on castor bean (Ricinus communis) leaves under standard rearing conditions of 27° C., 55% RH and 14 h photoperiod. Field strain of H. armigera was collected in June 2020 from cotton fields near Rehovot area and was reared on premixed diet (Ward's Stonefly Heliothis Diet, USA) under standard rearing conditions of 27° C., 55% RH and 14 h photoperiod.
Assays with S. littoralis larvae were done as described by Ishaaya et al. (1996, 2003). Castor bean leaves were dipped in various concentrations of the test compounds (and water as control), and were air dried for 2 h under controlled room conditions. The treated leaves were transferred into foam plastic (“Kalkar”) cups containing a layer of sawdust to avoid humidity. The treated leaves were offered to early 3rd-instar (12±1 mg) for 4-day feeding of the laboratory susceptible strain and for additional 4 days on untreated leaves. Larval mortality was determined and recorded on day 4 and 8 or as indicated, and larval weight gain (LWG) was determined on day 4 and 8 or as indicated.
(§2) To obtain a concentration-mortality line, at least three concentrations were used for most of the bioassays. LC values were estimated by probit analysis (POLO, 1987). Control mortality was corrected using Abbott's (1925) formula.
(§3) Firstly, all the compounds were assessed alone against the larvae, and then, binary mixtures of chlorantraniliprole with tau-fluvalinate were evaluated in different ratios.

[2] = test system: Helicoverpa armigera (Heliothis) larvae; experiment: Leaf-dip bioassay on Helicoverpa armigera larvae (cotton leaves); format: in vivo; settings: for Lethal concentrations for Helicoverpa armigera (Heliothis), LD50 / Lethal concentrations for Helicoverpa armigera (Heliothis), LD90: third instar larvae, treated cotton leaves, probit analysis
Method: as §1
Tender leaves of cotton were dipped in aqueous concentrations of a formulation or in water as control. After 15 seconds of dipping, the cotton leaves were then allowed to air dry for 2 h. Afterwards, Heliothis larvae (third instars, 8-10 mm), reared in a controlled growth room (27±2° C. and 50% RH with a photoperiod of 14:10 h light:dark) were put inside Petri dishes on treated cotton leaves; in addition, filter papers were also added to the dishes (to avoid too much moisture). The experiments were done on 5-10 larvae for each concentration and were repeated three times, on separate days.
Mortality of the larvae in comparison with the control was determined, two and five-six days after exposure to the formulations.
as §2, §3

With `CNC(=O)c1cc(Cl)cc(C)c1NC(=O)c1cc(Br)nn1-c1ncccc1Cl` [Chlorantraniliprole] the mortality at 0.05 ppm ([1]; Spodoptera littoralis, in Ricinus communis, 0.05 ppm, alone, read-out: S. littoralis mortality, %) was 27%, the mortality at 0.1 ppm ([1]; Spodoptera littoralis, in Ricinus communis, 0.1 ppm, alone, read-out: S. littoralis mortality, %) was 48% and the “Lethal concentrations for Spodoptera littoralis, LD50” value [1] was “LD50 = 0.1 ppm”. The “Lethal concentrations for Spodoptera littoralis, LD90” value [1] was “LD90 = 1 ppm”, the mortality at 0.05 ppm ([2]; Helicoverpa armigera, 0.05 ppm, alone, read-out: H. armigera mortality, %) was 18% and the mortality at 0.1 ppm ([2]; Helicoverpa armigera, 0.1 ppm, alone, read-out: H. armigera mortality, %) was 40%. The “Lethal concentrations for Helicoverpa armigera (Heliothis), LD50” value [2] was “LD50 ≥ 0.1 ppm” and the “Lethal concentrations for Helicoverpa armigera (Heliothis), LD90” value [2] was “LD90 ≥ 1 ppm”.

With `CC(C)[C@@H](Nc1ccc(C(F)(F)F)cc1Cl)C(=O)OC(C#N)c1cccc(Oc2ccccc2)c1` (stereo partly shown) [Tau-fluvalinate] the mortality at 50 ppm ([1]; Spodoptera littoralis, in Ricinus communis, 50 ppm, alone, read-out: S. littoralis mortality, %) was 20%, the mortality at 100 ppm ([1]; Spodoptera littoralis, in Ricinus communis, 100 ppm, alone, read-out: S. littoralis mortality, %) was 40% and the “Lethal concentrations for Spodoptera littoralis, LD50” value [1] was “LD50 ≥ 100 ppm”. For the same compound, the “Lethal concentrations for Spodoptera littoralis, LD90” value [1] was “LD90 ≥ 500 ppm”, the mortality at 50 ppm ([2]; Helicoverpa armigera, 50 ppm, alone, read-out: H. armigera mortality, %) was 30% and the mortality at 100 ppm ([2]; Helicoverpa armigera, 100 ppm, alone, read-out: H. armigera mortality, %) was 45%. For the same compound, the “Lethal concentrations for Helicoverpa armigera (Heliothis), LD50” value [2] was “LD50 ≥ 100 ppm” and the “Lethal concentrations for Helicoverpa armigera (Heliothis), LD90” value [2] was “LD90 ≥ 500 ppm”.
